Laboratory results published in patent publication US20080227655A1, “Assessment of effect of an agent on a human biological condition using rodent gene expression panels” (priority 2006, published 2008).
Several values for one entry are separate records, joined by “and”; a condition that tells them apart may be missing. Identical values can stand only once.

Tested on: custom murine 40-gene Precision Profile for Rheumatoid Arthritis, whole blood
Test: KRN (K/BxN) serum transfer induced arthritis model, whole blood gene expression by QPCR, vehicle or dexamethasone treatment
Type: in vivo, female BALB/c mice
Details: for ABCA1_M Normalized CT Value (Delta CT) / APAF1_M Normalized CT Value (Delta CT) / ARG2_M Normalized CT Value (Delta CT) / CASP1_M Normalized CT Value (Delta CT) / CASP3_M Normalized CT Value (Delta CT) / CCR3_M Normalized CT Value (Delta CT) / CD3Z_M Normalized CT Value (Delta CT) / CD8A_M Normalized CT Value (Delta CT) / CD14_M Normalized CT Value (Delta CT) / CD19_M Normalized CT Value (Delta CT) / CD86_M Normalized CT Value (Delta CT) / CSPG2_M Normalized CT Value (Delta CT) / F3_M Normalized CT Value (Delta CT) / HMOX1_M Normalized CT Value (Delta CT) / HSPA1A—M Normalized CT Value (Delta CT) / ICAM1—M Normalized CT Value (Delta CT) / IFI16—M Normalized CT Value (Delta CT) / IL1B_M Normalized CT Value (Delta CT) / IL10_M Normalized CT Value (Delta CT): whole blood
Protocol: Whole blood gene expression changes were evaluated in vehicle control and drug-treated murine subjects across two murine models of arthritis according to the following arthritis models:
KRN Transgenic Mouse (K/B×N): K/B×N serum from transgenic mouse used to induce arthritis in female BALB/c mice (n=54). Collagen Induced Arthritis (CIA): Bovine type II collagen used to induce arthritis in male DBA/1 mice (n=54).
In addition, naïve, untreated animal groups at baseline and terminal day were included to control for potential age-related changes in gene expression over the extended study periods. Animal groups, time-points, and treatment schedules are summarized in Tables 20A and 20B, respectively.
Whole blood samples from animals were collected by retro-orbital bleed at selected time-points in accordance with the arthritis study schemas described in […], and transferred into sample collection tubes containing a 1.5× lysis solution and RPMI. Samples were processed into total RNA and cDNA. […] It was anticipated from these murine models would provide a better understanding of the relevant molecular response of arthritis induction and their potential correlation to the human disease condition.
Normal murine subject reference values (represented as normalized Ct or ΔCt values) were established for male DBA/1 mice (n=6 for the CIA study arm) and female BALB/c mice (n=6 for the KRN study arm). In both arms of the study, gene expression response of normal (naïve, non-immunized and untreated) murine subjects were evaluated in groups of 6 each at day 0 and day 60 for the CIA study arm, and at day 0 and day 21 for the KRN study arm (see Tables 20A and 20B).
Gene expression responses for the arthritis-induced murine model were evaluated for untreated mice at day 3 and vehicle-treated mice at days 7, 14 and 21 to characterize disease progression.

[1] = KRN Day 14, Dex-treated, individual murine subject
[2] = KRN Day 14, Dex-treated, individual murine subject, listed as Dex
[3] = KRN Day 14 Dex, individual mouse, listed as Dex
[4] = KRN Day 21, Dex-treated, group Average
[5] = KRN Day 21, Dex-treated, individual murine subject, listed as Dex
[6] = KRN Day 21 Dex, individual mouse, listed as Dex

## C[C@@H]1C[C@H]2[C@@H]3CCC4=CC(=O)C=C[C@]4(C)[C@@]3(F)[C@@H](O)C[C@]2(C)[C@@]1(O)C(=O)CO [Dexamethasone]
[1]
  Normalized CT Value (Delta CT) TLR4_M: 18.49
  Normalized CT Value (Delta CT) TNFSF5—M: 19.61
  Normalized CT Value (Delta CT) TNF_M: 20.58
  Normalized CT Value (Delta CT) VEGF_M: 20.76
[2]
  Normalized CT Value (Delta CT) IL1RAP_M: 18.49 and 19.00 and 18.48 and 18.13 and 18.59 and 18.81
  Normalized CT Value (Delta CT) IL1RN—M: 17.70 and 17.88 and 17.80 and 17.59 and 17.72 and 17.52
  Normalized CT Value (Delta CT) IL6_M: 25.39 and 25.69 and 25.54 and 25.34 and 25.89 and 25.05
  Normalized CT Value (Delta CT) JUN_M: 19.76 and 19.88 and 19.77 and 19.35 and 19.58 and 19.68
  Normalized CT Value (Delta CT) MEF2C—M: 20.59 and 19.97 and 20.74 and 19.83 and 20.88 and 19.95
  Normalized CT Value (Delta CT) MMP9—M: 14.51 and 14.33 and 14.28 and 14.07 and 14.70 and 14.83
  Normalized CT Value (Delta CT) NFKB1—M: 17.37 (2×) and 17.12 and 17.30 and 16.77 and 17.79
  Normalized CT Value (Delta CT) PADI4—M: 18.74 and 18.78 and 18.81 and 18.39 and 18.98 and 19.03
  Normalized CT Value (Delta CT) PLA2G7—M: 15.31 and 15.29 and 15.04 and 14.93 and 15.33 and 15.36
KRN Day 14 Dex, group Average
  ABCA1_M Normalized CT Value (Delta CT): 18.74
  APAF1_M Normalized CT Value (Delta CT): 19.47
  ARG2_M Normalized CT Value (Delta CT): 17.37
  CASP1_M Normalized CT Value (Delta CT): 19.02
  CASP3_M Normalized CT Value (Delta CT): 17.77
  CCR3_M Normalized CT Value (Delta CT): 19.21
  CD3Z_M Normalized CT Value (Delta CT): 17.27
  CD8A_M Normalized CT Value (Delta CT): 18.32
  CD14_M Normalized CT Value (Delta CT): 19.94
  CD19_M Normalized CT Value (Delta CT): 17.52
  CD86_M Normalized CT Value (Delta CT): 23.30
  CSPG2_M Normalized CT Value (Delta CT): 20.94
  F3_M Normalized CT Value (Delta CT): 23.16
  HMOX1_M Normalized CT Value (Delta CT): 18.18
  HSPA1A—M Normalized CT Value (Delta CT): 21.59
  ICAM1—M Normalized CT Value (Delta CT): 19.42
  IFI16—M Normalized CT Value (Delta CT): 17.45
  IL1B_M Normalized CT Value (Delta CT): 14.29
  IL10_M Normalized CT Value (Delta CT): 25.56
[3]
  ABCA1_M Normalized CT Value (Delta CT): 18.85 and 18.64 and 18.31 and 18.46 and 19.46 and 18.75
  APAF1_M Normalized CT Value (Delta CT): 19.78 and 19.62 and 19.16 and 19.37 and 19.43
  ARG2_M Normalized CT Value (Delta CT): 17.30 and 17.84 and 17.05 and 16.89 and 17.70 and 17.43
  CASP1_M Normalized CT Value (Delta CT): 19.00 and 18.87 and 18.99 and 19.15 and 19.23 and 18.90
  CASP3_M Normalized CT Value (Delta CT): 17.98 and 17.63 and 17.87 and 17.16 and 17.93 and 18.06
  CCR3_M Normalized CT Value (Delta CT): 19.56 and 18.34 and 19.23 and 18.45 and 19.90 and 19.79
  CD3Z_M Normalized CT Value (Delta CT): 17.27 and 17.38 and 17.23 and 16.92 and 18.16 and 16.68
  CD8A_M Normalized CT Value (Delta CT): 18.76 and 18.05 and 18.11 and 17.83 and 19.21 and 17.94
  CD14_M Normalized CT Value (Delta CT): 19.50 and 20.04 and 19.93 and 20.22 and 19.63 and 20.29
  CD19_M Normalized CT Value (Delta CT): 17.84 and 17.32 (2×) and 18.33 and 17.39
  CD86_M Normalized CT Value (Delta CT): 23.63 and 23.21 and 23.28 and 22.53 and 23.60 and 23.56
  CSPG2_M Normalized CT Value (Delta CT): 21.74 and 21.15 and 20.43 and 21.79 and 19.79 and 20.71
  F3_M Normalized CT Value (Delta CT): 22.18 and 23.66 and 21.85 and 24.55 and 21.66 and 25.05
  HMOX1_M Normalized CT Value (Delta CT): 17.83 and 18.22 and 17.82 and 18.09 and 18.31 and 18.81
  HSPA1A—M Normalized CT Value (Delta CT): 21.44 and 22.20 and 21.91 and 21.55 and 20.95 and 21.51
  ICAM1—M Normalized CT Value (Delta CT): 19.58 and 19.31 and 19.39 and 19.05 and 19.89 and 19.28
  IFI16—M Normalized CT Value (Delta CT): 17.64 and 17.26 and 17.87 and 16.81 and 18.04 and 17.08
  IL1B_M Normalized CT Value (Delta CT): 14.31 and 14.48 (2×) and 14.19 and 14.00 and 14.25
  IL10_M Normalized CT Value (Delta CT): 25.62 and 25.82 and 25.58 and 25.54 and 25.73 and 25.10
[4]
  Normalized CT Value (Delta CT) IL1RAP_M: 19.02
  Normalized CT Value (Delta CT) IL1RN—M: 18.13
  Normalized CT Value (Delta CT) IL6_M: 25.28
  Normalized CT Value (Delta CT) JUN_M: 20.06
  Normalized CT Value (Delta CT) MEF2C—M: 20.90
  Normalized CT Value (Delta CT) MMP9—M: 15.04
  Normalized CT Value (Delta CT) NFKB1—M: 17.69
  Normalized CT Value (Delta CT) PADI4—M: 18.92
  Normalized CT Value (Delta CT) PLA2G7—M: 15.50
[5]
  Normalized CT Value (Delta CT) IL1RAP_M: 19.08 and 19.03 and 18.86 and 19.29 and 18.97 and 18.89
  Normalized CT Value (Delta CT) IL1RN—M: 17.95 (2×) and 18.43 and 17.84 and 18.46 and 18.15
  Normalized CT Value (Delta CT) IL6_M: 25.40 and 25.42 and 24.75 and 25.06 and 25.35 and 25.72
  Normalized CT Value (Delta CT) JUN_M: 20.06 and 20.45 and 20.53 and 19.72 and 19.52
  Normalized CT Value (Delta CT) MEF2C—M: 21.26 (2×) and 20.26 and 21.57 and 20.41 and 20.64
  Normalized CT Value (Delta CT) MMP9—M: 15.23 and 14.73 and 15.36 and 15.08 and 14.79
  Normalized CT Value (Delta CT) NFKB1—M: 17.74 and 18.12 and 17.25 and 18.27 and 17.28 and 17.46
  Normalized CT Value (Delta CT) PADI4—M: 19.00 and 18.36 and 19.37 and 18.97 and 19.13 and 18.69
  Normalized CT Value (Delta CT) PLA2G7—M: 15.27 and 15.70 and 15.34 and 15.67 and 15.86 and 15.15
KRN Day 21 Dex, group Average
  ABCA1_M Normalized CT Value (Delta CT): 19.00
  APAF1_M Normalized CT Value (Delta CT): 19.85
  ARG2_M Normalized CT Value (Delta CT): 17.59
  CASP1_M Normalized CT Value (Delta CT): 19.48
  CASP3_M Normalized CT Value (Delta CT): 18.35
  CCR3_M Normalized CT Value (Delta CT): 19.66
  CD3Z_M Normalized CT Value (Delta CT): 17.38
  CD14_M Normalized CT Value (Delta CT): 20.44
  CD19_M Normalized CT Value (Delta CT): 17.72
  CD86_M Normalized CT Value (Delta CT): 23.73
[6]
  ABCA1_M Normalized CT Value (Delta CT): 19.52 and 19.29 and 18.57 and 19.09 and 18.61 and 18.92
  APAF1_M Normalized CT Value (Delta CT): 19.76 and 19.88 and 19.81 and 20.29 and 19.46 and 19.93
  ARG2_M Normalized CT Value (Delta CT): 17.45 and 17.78 and 17.56 and 17.29 and 18.09 and 17.36
  CASP1_M Normalized CT Value (Delta CT): 19.34 and 19.90 and 19.57 and 19.28 and 19.50 and 19.31
  CASP3_M Normalized CT Value (Delta CT): 18.21 and 18.52 (2×) and 18.24 and 18.02 and 18.60
  CCR3_M Normalized CT Value (Delta CT): 19.82 and 19.72 and 19.20 and 19.52 and 20.10 and 19.60
  CD3Z_M Normalized CT Value (Delta CT): 17.32 and 17.40 and 17.14 and 17.66 and 17.04 and 17.71
  CD14_M Normalized CT Value (Delta CT): 20.25 and 21.24 and 20.59 and 20.09 and 20.44 and 20.03
  CD19_M Normalized CT Value (Delta CT): 18.44 and 17.98 and 17.64 and 18.11
  CD86_M Normalized CT Value (Delta CT): 23.89 and 23.61 and 23.63 and 24.02 and 23.14 and 24.11
